# Measured values as given in US20250057873A1, “Intestinal Tumor Suppressor, PGE2 Production Inhibitor, and IL-22BP Production Promoter” (TOKYO UNIVERSITY OF SCIENCE FOUNDATION, priority 2021, published 2025).
# Tests used:
# [1] = system: colorectal polyps; assay: PGE2 administration to DSS-treated Apc^Min/+Clec7a^-/- mice; assay type: in vivo, mouse
# Description: FIG. 6e: 8-week-old Apc^Min/+Clec7a^−/− mice (n=3) were administered with 2% by mass of DSS for 1 week, and then were administered with PGE2 ([…]) or PBS intraperitoneally every other day for 4 weeks. After euthanization, generation of colorectal polyps in the Apc^Min/+Clec7a^−/− mice with or without PGE2 treatment was examined in comparison to that of the Apc^Min/+ mice (n=3/group).
# FIG. 6f: 8-week-old Apc^Min/+Clec7a^−/− mice (n=3) were administered with 2% by mass of DSS for 1 week, and then were administered with PGE2 ([…]) or PBS intraperitoneally every other day for 4 weeks. After euthanization, generation of colorectal polyps in the Apc^Min/+Clec7a^−/− mice with or without the PGE2 treatment was examined in comparison to that of the Apc^Min/+ mice (n=3/group).
# FIG. 6g: 8-week-old Apc^Min/+Clec7a^−/− mice (n=3) were administered with 2% by mass of DSS for 1 week, and then were administered with PGE2 ([…]) or PBS intraperitoneally every other day for 4 weeks. After euthanization, populations of MHC-II^+CD11c^+DCs and MHC-II^−CD11b^+MDSCs in the polyps in the Apc^Min/+Clec7a^−/− mice were measured by flow cytometry (n=3/group).
# FIG. 6h: 8-week-old Apc^Min/+Clec7a^−/− mice (n=3) were administered with 2% by mass of DSS for 1 week, and then administered with PGE2 ([…]) or PBS intraperitoneally every other day for 4 weeks. After euthanization, expression of indicated genes in the Apc^Min/+Clec7a^−/− mice was examined by qPCR (n=3/group).
# Apc^Min/+ or Apc^Min/+Clec7a^−/− mice were normally raised in SPF condition for 19 to 21 weeks after being born, and polyps in small intestines emerged spontaneously. For the induction of colorectal tumor, same mice with 6 to 7 weeks old were treated with 1% by mass DSS for 1 week, and then were normally raised for another 4 to 5 weeks before sacrifice.
# [2] = system: intestinal polyp-infiltrating cells; assay: PGE2 stimulation of intestinal polyp-infiltrating cells of Apc^Min/+ mice, qPCR; assay type: cell-based, mouse; details: PGE2 20 hours
# Description: FIG. 6i: Tumor-infiltrating cells of the Apc^Min/+ mice (n=2, cells that were pooled during collection) were collected, stimulated with indicated doses of PGE2 for 20 hours, and then the expression of indicated genes was measured by qPCR. The data are mean±SD of 3 wells.
# (§1) Infiltrating cells in mouse/human colorectal tumor/non-tumor tissues (2×10^5) or mouse/human colorectal tumor/non-tumor tissue pieces (3 mm×3 mm cut) were cultured with Dectin-1 ligands Curdlan, OXCA, or laminarin, or with PGE2 stimulation for 20 h at 37° C. under 5% CO2 in 96-well flat-bottomed plates (Falcon, Becton Dickinson) in a volume of 0.2 ml RPMI containing 10% FBS and 1% streptomycin plus penicillin. After the culture, cells or tissues were collected and mRNA expression of tumor- or anti-tumor-associated genes was measured by qPCR described in Quantitative reverse transcription PCR section described later.
# (§2) Total RNA was extracted with Mammalian Total RNA Miniprep kit (Sigma Aldrich). […]
# [3] = system: CRC tumor tissues; assay: Human CRC tumor tissues cultured in the presence of PGE2, qPCR; assay type: cell-based
# Description: FIG. 7i: Tumor tissues of CRC patients were collected, minced, and then cultured in the presence of PGE2 for 20 hours. Data are mean±SD of 3 wells. The data in (FIGS. 7g to 7i) are representative of two independent experiments. *p<0.05, **p<0.01, and ****p<0.0001.
# as §1, §2
# [4] = target: T1, COX-2 (Homo sapiens, UniProt P35354); details: cited from earlier work
# T1 sequence (P35354 18-604): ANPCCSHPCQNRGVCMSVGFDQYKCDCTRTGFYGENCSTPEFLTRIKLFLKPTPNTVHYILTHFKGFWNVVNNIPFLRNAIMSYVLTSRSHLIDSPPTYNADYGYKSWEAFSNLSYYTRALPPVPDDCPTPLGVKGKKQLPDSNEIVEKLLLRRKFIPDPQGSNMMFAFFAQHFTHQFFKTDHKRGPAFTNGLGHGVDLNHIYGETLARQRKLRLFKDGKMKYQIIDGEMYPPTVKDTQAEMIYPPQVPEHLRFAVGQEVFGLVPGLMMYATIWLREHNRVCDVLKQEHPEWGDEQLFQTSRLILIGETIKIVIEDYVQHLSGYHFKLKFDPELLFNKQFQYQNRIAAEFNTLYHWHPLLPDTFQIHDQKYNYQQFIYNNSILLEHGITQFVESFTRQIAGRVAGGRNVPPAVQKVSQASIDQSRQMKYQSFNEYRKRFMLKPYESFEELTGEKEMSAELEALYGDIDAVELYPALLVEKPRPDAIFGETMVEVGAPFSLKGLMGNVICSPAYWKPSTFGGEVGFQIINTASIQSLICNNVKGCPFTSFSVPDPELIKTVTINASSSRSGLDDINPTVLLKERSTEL
# [5] = target: T2, Dectin-1 (Mus musculus, UniProt Q6QLQ4); assay: Stimulation of mouse colorectal polyp CD11b+ and CD11c+ cells with OXCA, with or without laminarin pre-treatment, qPCR; assay type: cell-based; details: laminarin for 3 hours before OXCA 16 hours
# T2 construct: CD11b^+ cells and CD11c^+ cells were purified from colorectal polyps with autoMACS; endogenous in cells; host or cells: primary CD11b+/CD11c+ cells or all polyp-infiltrating cells from colorectal/intestinal polyps of WT (C57BL/6J, AOM-DSS) or Apc^Min/+ mice
# T2 sequence (Q6QLQ4 1-244): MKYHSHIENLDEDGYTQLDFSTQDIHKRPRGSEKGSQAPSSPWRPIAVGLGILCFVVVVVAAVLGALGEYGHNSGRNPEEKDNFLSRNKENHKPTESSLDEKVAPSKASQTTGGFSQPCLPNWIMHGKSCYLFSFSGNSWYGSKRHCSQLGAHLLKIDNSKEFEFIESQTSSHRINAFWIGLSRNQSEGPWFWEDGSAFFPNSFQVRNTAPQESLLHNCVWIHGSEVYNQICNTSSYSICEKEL
# Description: FIG. 2d: WT SPF mice were administered with AOM, followed by three cycles of DSS. After 11 weeks, the mice were sacrificed, and CD11b^+ cells and CD11c^+ cells were purified from colorectal polyps with autoMACS. The purified cells were stimulated with an agonistic β-glucan OXCA, or were treated with an antagonistic β-glucan laminarin for 3 hours followed by the stimulation with OXCA for 16 hours, and the expression of Il6 and Il1b was measured by qPCR. The data in (FIGS. 2a to 2d) are representative of two independent experiments, and the data in (FIGS. 2a, 2b, and 2d) are expressed as mean±SD. *p<0.05, **p<0.01, ***p<0.001, and ****p<0.0001.
# FIG. 4h: C57BL/6J mice were administered with AOM, and were administered with DSS for three cycles. […] The cells were then stimulated with OXCA and expression of Il-22 bp was measured by qPCR. […] The data in (FIG. 4a and FIGS. 4d to 4h) are representative of two independent experiments, and the data in (FIGS. 4a, 4d, and 4f to 4h) are expressed as mean±SD. **p<0.01, ***p<0.001, and ****p<0.0001.
# FIG. 11d: WT mice administered with AOM followed by DSS for three cycles for 12 weeks were sacrificed, and colon CD11b^+ and CD11c^+ myeloid-derived cells were purified by autoMACS. […] The data in (FIGS. 11a, 11c, and 11d) are expressed as mean±SD. *p<0.05, **p<0.01, and ***p<0.001. […]
# [6] = target: T2, Dectin-1; assay: Stimulation of Apc^Min/+ polyp-infiltrating leukocytes / CD11b+ cells with Curdlan, with or without laminarin pre-treatment, qPCR; assay type: cell-based; details: laminarin 4 hours before Curdlan, polyp-infiltrating leukocytes
# Description: FIG. 5f: All polyp-infiltrating cells of the Apc^Min/+ mice were collected, and were stimulated with Curdlan for 20 hours, and then the expression of the genes involved in the PGE2 synthesis was measured by qPCR. A laminarin treatment was performed for 4 hours before the Curdlan treatment.
# FIG. 5g: Purified CD11b^+ polyp-infiltrating cells of the Apc^Min/+ mice were collected, and were stimulated with Curdlan for 20 hours, and then the expression of the genes involved in the PGE2 synthesis was measured by qPCR. A laminarin treatment was performed for 4 hours before the Curdlan treatment. The data in (FIGS. 5a to 5g) are representative of two independent experiments and expressed as mean±SD. *p<0.05, **p<0.01, and ***p<0.001.
# as §1, with “later. […]” for “later.”
# [7] = system: AOM-DSS-induced colorectal polyps; assay: AOM-3DSS colorectal tumor model, diet supplemented with 5% laminarin; assay type: in vivo, mouse
# Description: FIG. 6a: Oral administration of laminarin suppresses tumor formation in the large intestine, and PGE2 administration promotes tumor formation. AOM was administered to C57BL/6J mice, and 5% by mass of laminarin-containing powdered food was administered (continued for 10 days/cycle) from 3 days before to the end of the one-week administration of DSS, for three cycles in total. At Week 11 from the first AOM administration, the mice were sacrificed and the generation of tumors in the large intestines was observed macroscopically (n=7/group).
# FIG. 6b: AOM was administered to C57BL/6J mice, and 5% by mass of laminarin-containing powdered food was administered (continued for 10 days/cycle) from 3 days before to the end of the one-week administration of DSS, for three cycles in total. At Week 11 from the first AOM administration, the mice were sacrificed and the number of the colorectal polyps with indicated sizes was counted (n=7/group).
# FIG. 6c: AOM was administered to C57BL/6J mice, and 5% by mass of laminarin-containing powdered food was administered (continued for 10 days/cycle) from 3 days before to the end of the one-week administration of DSS, for three cycles in total. The mice were sacrificed at Week 11 after the first AOM administration and the concentration of PGE2 in tissue homogenates was measured by the ELISA (n=7/group).
# FIG. 6d: AOM was administered to C57BL/6J mice, and 5% by mass of laminarin-containing powdered food was administered (continued for 10 days/cycle) from 3 days before to the end of the one-week administration of DSS, for three cycles in total. The mice were sacrificed at Week 11 from the first AOM administration and an mRNA expression of CD11b (Itgam) was examined by qPCR (n=7/group). […]
# Polyp and non-polyp tissues from mouse colon were harvested and were put into 2 ml tubes containing 500 μl lysis buffer for protein [RIPA buffer. […] After being centrifuged, supernatant of the tissue homogenate was collected and PGE2 concentration was measured by ELISA Development Kit for PGE2 (R&D systems, Minneapolis, USA). […]
# [8] = after PGE2 administration, flow cytometry
# [9] = after PGE2 administration, qPCR
compound,measurement,setting,value
"CCCCC[C@H](O)/C=C/[C@H]1[C@H](O)CC(=O)[C@@H]1C/C=C\CCCC(=O)O [PGE2, prostaglandin E2]",polyp number,"[1]; PGE2 intraperitoneally every other day for 4 weeks, DSS-treated Apc^Min/+Clec7a^-/- mice",increased to the similar level of that in Apc^Min/+ mice
same,infiltration of CD11b+ MDSCs in polyps,[1]; [8],promoted
same,infiltration of CD11c+ DCs and T cells in polyps,[1]; [8],suppressed
same,Il-22 bp expression,[1]; [9],suppressed
same,"expression of CD11b (Itgam), Arginase-1 (Arg1), Cyclin D1 (Ccnd1) and c-Myc (Myc)",[1]; [9],enhanced
same,Il-22 bp expression,[2],directly inhibited
same,"expression of MDSC markers Arg1, CD11b and Nos2",[2],directly induced
same,expression of CD33 and CD11B (ITGAM),[3]; PGE2 20 hours in vitro,directly induced
same,human IL-22BP expression,"[3]; PGE2 20 hours, dose-dependent",suppressed
CC(=O)Oc1ccccc1C(=O)O [aspirin],occurrence or progression of colorectal cancer and polyps,[4],can reduce
Laminarin,effect on OXCA-induced Il6 and Il1b expression,[5],inhibited
same,"effect on Curdlan-induced Ptges3, Ptgs1 and Ptgs2 expression",[6],inhibited
same,burden of colorectal polyps versus control mice,"[7]; 5% laminarin diet during 3 cycles of DSS, WT mice, AOM-3DSS",significantly lower
same,"intestinal PGE2 production (tissue homogenate, ELISA)","[7]; 5% laminarin diet, AOM-3DSS mice",suppressed
same,CD11b (Itgam) expression,"[7]; 5% laminarin diet, AOM-3DSS mice, qPCR",reduction
